Two molecules from paper PMC7432838, “A Curcumin Analog Exhibits Multiple Biologic Effects on the Pathogenesis of Alzheimer’s Disease and Improves Behavior, Inflammation, and β-Amyloid Accumulation in a Mouse Model” (International Journal of Molecular Sciences, 2020) can be followed below.

For data set [1], the system named is Aβ40 production in N2a/APPswe stable cells. In words: Aβ40 ELISA of culture medium. Type of data set: cell-based, mouse. The note with it: 24 h. The protocol: (§1) Extracellular levels of soluble Aβ40 and Aβ42 were determined by LEGEND MAX™ β-Amyloid x-40 and X-42 ELISA Kit (Biolegend, San Diego, CA, USA). Overexpression of the APP Swedish mutation (APPswe) in the N2a neuronblastoma cell line was called the N2a/APPswe cell line. N2a/APPswe stable cells were seeded at 8 × 10^5 cells in 6 cm dishes. After overnight incubation, the cells were treated with curcumin and TML-6 for 24 h. […] The culture supernatant was collected and centrifuged at 1500× g at 4 °C for 5 min to remove cells. The culture supernatants from various treatments were conducted to examine the Aβ levels according to the manufacturer’s instructions. The samples for the detection of soluble Aβ levels were diluted in the supernatant at a 1:10 dilution for this experiment. Levels of soluble Aβ were detected by measuring the OD at 620 nm (Molecular Devices, San Jose, CA, USA). The calculation of Aβ levels was based on the standard curves of Aβ40 and Aβ42, respectively.
(In an ELISA, binding on a coated surface is turned into a signal by an enzyme label.)

In the next data set the test system is Huh-7 cells. In words: Cytotoxicity assay by Cell Counting Kit-8 (CCK-8). Type of data set: cell-based, human. Particulars: Huh-7, 24 h. On the procedure: The cytotoxicity assay was performed using the Cell Counting Kit-8 (CCK-8, Sigma). We dissolved 0.0524 g of TML-6 (molecular weight is 523.62 g/mol) in 10 mL DMSO to obtain TML-6 stock at 10 mM for cell line study. […] Briefly, Huh-7 cells were seeded overnight in 96-well plates at 5000 cells/well and then subjected to traditional curcumin or TML-6 treatment for 24 h. At each time point, a CCK-8 solution (0.25 mg/mL) was added to the medium in each well for an additional 4 h incubation, and absorbance was measured at 570 nm using an ELISA reader.

The test system of data set [2] is Iba-1 (microglial activation marker) in 3xTg AD mouse hippocampus. In words: Immunofluorescence staining of Iba-1 in brain of 3xTg AD mice. Type of data set: in vivo. The note with it: 150 mg/kg/day in diet for four months. The protocol: (§2) The triplex transgenic mouse model (3xTg-AD, APP Swedish, MAPT P301L, and PSEN1 M146V) was adopted as the AD model and bred at the laboratory animal center of National Cheng Kung University (NCKU), Tainan, Taiwan. The mice were housed in a room maintained on a 12 h light–dark cycle and fed ad libitum. Six-month old 3xTg-AD mice were used for animal experiments. Experimental procedures for handling the mice were in accordance with the guidelines of the Institutional Animal Care and Use Committee (IACUC) of NCKU. These mice develop plaques and tangles pathology. Aβ deposition is progressive, and deposition appears as early as nine months for triplex-Tg mice. […] The quantity of the diet consumed by the mice was determined daily. The concentration of curcumin and TML-6 in the diet was determined to be around 1.20 mg/g of diet after assaying by HPLC by the Development Center for the Biotechnology (DCB), Taipei, Taiwan.
(§3) Mice were anesthetized using pentobarbital (60 mg/kg, intravenous) and then transcardial perfusion was performed with 0.01 M PBS (pH 7.4). […] Images were captured by the TissureFAXS microscopy system and positive signals were quantified by TissueQuest software module (TissueGnostic, Vienne, Austria).

A further data set has as its system 3xTg AD transgenic mice. The data set can be described thus: Morris water maze test in 3xTg AD transgenic mice. The note with it: 150 mg/kg/day in diet for four months; six-month-old 3xTg AD mice; vs vehicle control. Type of data set: in vivo, mouse. The protocol:
The triplex transgenic mouse model (3xTg-AD, APP Swedish, MAPT P301L, and PSEN1 M146V) was adopted as the AD model and bred at the laboratory animal center of National Cheng Kung University (NCKU), Tainan, Taiwan. The mice were housed in a room maintained on a 12 h light–dark cycle and fed ad libitum. Six-month old 3xTg-AD mice were used for animal experiments. Experimental procedures for handling the mice were in accordance with the guidelines of the Institutional Animal Care and Use Committee (IACUC) of NCKU. These mice develop plaques and tangles pathology. Aβ deposition is progressive, and deposition appears as early as nine months for triplex-Tg mice. The AD transgenic mice were fed with the control diet (Laboratory Rodent Diet 5001, LabDiet, St. Louis, MO, USA), the control diet plus traditional curcumin (150 mg/kg), or the control diet plus TML-6 (150 mg/kg) for four months. Diets were stored at 4 °C and were added to mouse cage twice a week. The quantity of the diet consumed by the mice was determined daily. The concentration of curcumin and TML-6 in the diet was determined to be around 1.20 mg/g of diet after assaying by HPLC by the Development Center for the Biotechnology (DCB), Taipei, Taiwan.
For assessing spatial learning and memory, the Morris water maze was used as we described before. […] The time taken to reach the platform was recorded as escape latency.

Another data set relates to N2a/APPswe stable cells. In words: Cell viability/morphology by micrographs during Aβ ELISA treatment. Type of data set: cell-based, mouse. Particulars: 24 h. On the procedure:
as §1

A short description of data set [3]: Water solubility (preformulation, preliminary studies). Type of data set: physicochemical. The note with it: unformulated. The protocol: The active pharmaceutical ingredients of TML-6 were synthesized and physico-chemical properties were characterized by SinoPharm Pharmaceutical Company (SPT), Tainan, Taiwan. Preformulation studies on the solubility of TML-6 were conducted by Value Pharmaceutical Services (VPS) Company, Jiansu, China. All the data in this study were conducted using unformulated TML-6. Formulation to optimize the solubility and permeability of TML-6 is under development for toxicological studies.

Data set [4] deals with Aβ in 3xTg AD mouse brain. In words: Immunofluorescence staining of Aβ in brain of 3xTg AD mice. Type of data set: in vivo. The note with it: 150 mg/kg/day in diet for four months. On the procedure: as §2, §3
The nature of data set [5]: Pharmacokinetic study after oral administration in SD rats. Type of data set: in vivo, rat. On the procedure:
In order to evaluate the bioavailability of curcumin and its analog TML-6, pharmacokinetic studies were commissioned and conducted by the Development Center for Biotechnology (DCB, Taipei, Taiwan). The kinetics of curcumin and TML-6 in blood were collected at 0.25, 0.5, 1, 2, 4, 6, 8 and 10 h after oral administration of curcumin and TML-6 at the dose of 150 mg/kg in male Sprague–Dawley Rats.

The mark [6] stands for this setting: male, Sprague-Dawley, rat, in vivo, po, 150 mg/kg.

For the molecule `CCN(CC)C(=O)CC(C)(C(=O)/C=C/c1ccc(OC)c(OC)c1)C(=O)/C=C/c1ccc(OC)c(OC)c1` [TML-6], the “Aβ40 level, reduced to % as compared with control group” value in data set [1] (3.14 µg/mL, culture medium) is “approximately 86%”. Besides, in the data set with Huh-7 cells (concentrations below 5 μM (2.61 µg/mL)), the “cytotoxicity (CCK-8)” value was “no cytotoxicity”. Also, the “suppression of Iba-1 expression in hippocampus vs vehicle control” value in data set [2] was determined as 50%. Also, the “learning behavior in Morris water maze (in words)” value with 3xTg AD transgenic mice is given as “significantly improved hippocampus-dependent learning behavior”. Moreover, the “highest dose, at which cytotoxicity was seen (micrographs)” value in the data set with N2a/APPswe stable cells is 4.19 µg/mL. In addition, the solubility (as a rule, the concentration that dissolves in the medium under given conditions) in data set [3] (water) was less than 100 µg/mL. The “reduction of Aβ expression in brain vs vehicle control” value in data set [4] turned out to be 51%. Also, in data set [5] (setting [6]), the highest level (Cmax) was 35.9 ± 15.6 ng/mL; the MRT (usually the average time that molecules of a dose stay in the body) came to 3.91 ± 0.62 h; the Tmax (usually the time at which the peak concentration occurs) is 3.67 ± 2.08 h; the half-life – broadly, the time needed for the level to fall by half in the phase considered – was 76.2 ± 30.6 min. For the same molecule, in data set [5] (male, Sprague-Dawley, rat, in vivo, po, 150 mg/kg, AUC(0-8)), the AUC(0-t) (in general, exposure summed from dosing to a finite time, without extrapolation to infinity) was found to be 181 ± 78.7 ng·h/mL. Moreover, the AUC(0-t) in data set [5] (male, Sprague-Dawley, rat, in vivo, po, 150 mg/kg, AUC(0-last)) is 177 ± 76.8 ng·h/mL.
For the molecule curcumin [reference compound], in data set [1] (different doses up to 20 µg/mL), the “Aβ40 level vs control (in words)” value was “increased to levels higher than those of the control”. In addition, the IC50 – broadly, the point on the concentration scale where inhibition reaches its midpoint – with Huh-7 cells stood at 60 µM. Moreover, the “cytotoxicity (CCK-8)” value in the data set on Huh-7 cells (up to highest concentration of 20 µg/mL) was “no obvious cytotoxicity”. Moreover, the “Iba-1 expression vs vehicle (in words)” value in data set [2] is given as “no significant change”. In addition, the “learning behavior in Morris water maze (in words)” value in the data set on 3xTg AD transgenic mice was “no significant difference”. The “highest dose, at which cytotoxicity was seen (micrographs)” value in the data set with N2a/APPswe stable cells stood at 20 µg/mL. The water solubility result in data set [3] is “less than 0.1 mg/mL”. Moreover, in data set [4], the “Aβ expression in brain vs vehicle (in words)” value is reported as “trend of reduction but without significant differences”. Also, the “blood concentrations at each time point” value in data set [5] (SD rats, oral 150 mg/kg) is “not detectable”.
